Results from patent US20210267996A1, “Compounds for inhibition of inflammation” (Children`s Medical Center Corporation, priority 2018, published 2021).

What was measured:
mouse GSDMA3-3C = biological target: T1, mouse GSDMA3-3C (Mus musculus, UniProt Q5Y4Y6); experiment: Liposome leakage assay, GSDMA3-3C plus 3C protease; assay type: biochemical; conditions: read-out: IC50 of liposome leakage; 3C-cleaved GSDMA3-3C
T1 construct: other: 3C-cleaved GSDMA3-3C; Human GSDMD-3C and mouse GSDMA3-3C mutants were constructed by QuikChange Mutagenesis (Agilent Technologies); fused on or other part: His6-MBP tag, removed by TEV before use; The engineered 3C site is cut by 3C protease, so the N-terminal pore-forming fragment is set free in the well

[1] = tested on: LPS-induced sepsis in C57BL/6 mice; experiment: LPS-induced sepsis in mice, survival; assay type: in vivo, mouse
Procedure: Mice. 8-week-old female C57BL/6 wild-type mice were purchased from The Jackson Laboratory and maintained at the SPF facility at Harvard Medical School. All mouse experiments were conducted using protocols approved by the Animal Care and Use Committees of Boston Children's Hospital and Harvard Medical School.
Drug administration and LPS-induced sepsis in mice. […] In the indicated group of mice in FIG. 5h, copper gluconate (0.15 mg/kg) was administered intraperitoneally 6 hr prior to the first injection of DSF. Sepsis was induced in C57BL/6 mice (8-10 weeks old) by intraperitoneal injection of LPS (E. coli O111:B4) at indicated concentrations. In some experiments, mice were treated with copper gluconate (0.15 mg/kg) or vehicle by intraperitoneal injection 5 hr before LPS challenge and then given DSF (50 mg/kg) intraperitoneally dissolved in sesame oil or vehicle 4 hr before and just before LPS challenge (15 mg/kg intraperitoneally). Peritoneal cells were collected by rinsing the peritoneal cavity with ice cold PBS containing 3% FBS 6 hr after LPS challenge. To measure cytokines, blood samples were collected by tail vein bleed 12 hr post LPS challenge and allowed to clot at room temperature. Sera obtained after centrifugation at 2,000×g for 10 min were analysed for inflammatory cytokines by ELISA.
Cell death was determined by CytoTox96 assay. […] Statistical analysis was performed using the log-rank test (In FIGS. 14, 16, 17, mice/group). […] Serum was obtained 12 hrs post LPS challenge. Shown are mean±s.d. […] Statistical analysis was performed using the log-rank test (8 mice/group).

HEK293T cells = experiment: LDH release of HEK293T cells expressing caspase-11 and GSDMD; assay type: cell-based
Procedure: FIG. 72 contains a bar graph showing results of an experiment when FL human WT or C191S GSDMD were co-expressed with caspase-11 in HEK293T cells. 8 h post transfection, the indicated amount of disulfiram was added and cell death was determined by LDH release 12 h later.
Cytotoxicity and cell viability assays: cell death and cell viability were determined by the lactate dehydrogenase release assay using the CytoTox 96 Non-Radioactive Cytotoxicity Assay kit (Promega) and by measuring ATP levels using the CellTiter-Glo Luminescent Cell Viability Assay (Promega), respectively, according to the manufacturer's instructions. Luminescence and absorbance were measured on a BioTek Synergy 2 plate reader.
To further confirm that disulfiram acts on Cys191, disulfiram inhibition of LDH release in HEK293T cells expressing caspase-11 and WT or C191S GSDMD was assessed.

mouse iBMDMs = experiment: Processing of caspase-1, GSDMD and IL-1β in iBMDMs (immunoblot); assay type: cell-based; conditions: 1 hr time point
Procedure: (§1) FIG. 97 contains a bar graph showing results of an experiment where LPS-primed THP-1 cells, after medium removal, were incubated with probe FAM-YVAD-FMK in FLICA assay buffer for another 0.5 hr before fluorescence reading. iBMDMs were pretreated with disulfiram, Bay 11-7082, necrosulfonamide (NSA) or z-VAD-fmk for 1 hr before treated or not with Nigericin for 0.5 hr. Whole cell lysates and culture supernatants were immunoblotted with the indicated antibodies.
as §1, with “FIG. 98” for “FIG. 97”, “for 1” for “for 0.5”
Canonical inflammasome assembly activates caspase-1, which cleaves pro-IL-1β and GSDMD, and the latter is needed to release processed IL-1β and to induce pyroptosis. To assess which steps in NLRP3-mediated inflammation were inhibited post ASC speck formation, LPS-primed THP-1 cells were treated with vehicle, 30 μM z-VAD-fmk or disulfiram 1 hour before adding nigericin, and cleavage and activation of caspase-1, GSDMD, and pro-IL-1β were analysed by immunoblot of whole cell lysates 30 min later and 1 hr later. Secretion of processed IL-1β was also assessed by immunoblot of culture supernatants. […] The 1 hr time point is relevant as the cell death and IL-1β release measurements used cells stimulated with nigericin for 1 and 2 hrs, respectively.

T1 sequence (Q5Y4Y6 with tags, fused parts or gaps INS262LEVLFQGP, form open): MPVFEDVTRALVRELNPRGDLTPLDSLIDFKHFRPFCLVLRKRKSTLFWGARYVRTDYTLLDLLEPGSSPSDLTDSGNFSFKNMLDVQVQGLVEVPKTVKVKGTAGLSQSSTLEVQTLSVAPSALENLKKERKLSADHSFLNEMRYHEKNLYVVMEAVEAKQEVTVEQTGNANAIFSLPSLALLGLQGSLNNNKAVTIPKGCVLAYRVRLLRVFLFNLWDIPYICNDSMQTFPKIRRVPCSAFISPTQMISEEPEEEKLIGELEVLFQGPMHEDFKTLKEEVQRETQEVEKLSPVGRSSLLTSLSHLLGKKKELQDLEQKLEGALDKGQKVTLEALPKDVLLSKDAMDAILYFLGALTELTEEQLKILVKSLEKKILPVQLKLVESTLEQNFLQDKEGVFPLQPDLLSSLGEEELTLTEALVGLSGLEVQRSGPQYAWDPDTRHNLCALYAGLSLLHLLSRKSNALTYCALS

Structure (SMILES) | IC50 (mouse GSDMA3-3C) | survival ([1]; LPS 15 mg/kg, 50 mg/kg ip 24 and 4 hrs before, 96 hrs) | survival ([1]; LPS 25 mg/kg, 50 mg/kg ip 24 and 4 hrs before) | survival ([1]; LPS 25 mg/kg, 50 mg/kg ip post LPS, with copper gluconate 0.15 mg/kg) | survival ([1]; LPS 25 mg/kg, 50 mg/kg ip post LPS, without copper) | survival ([1]; LPS 50 mg/kg, 50 mg/kg ip 24 and 4 hrs before) | survival of Casp11−/− mice ([1]; LPS challenge) | survival of Gsdmd−/− mice ([1]; LPS challenge) | survival of Casp1−/− mice ([1]; lethal LPS challenge) | C191S GSDMD-induced cell death (LDH release) (HEK293T cells; caspase-11 plus C191S GSDMD) | WT GSDMD-induced cell death (LDH release) (HEK293T cells; caspase-11 plus WT GSDMD) | processing of caspase-1, GSDMD and IL-1β (mouse iBMDMs)
CCN(CC)C(=S)SSC(=S)N(CC)CC [C-23, Tetraethylthiuram disulfide] | 12.1 ± 2.1 µM | all the disulfiram-treated mice survived | 5 of 8 | 2 of 8 | died | 1 of 8 | did not significantly affect the survival | did not significantly affect the survival | protected | only inhibited when 4 times as much disulfiram was added | strongly inhibited | –
Cc1ccc(S(=O)(=O)/C=C/C#N)cc1 [Bay 11-7082] | – | – | – | – | – | – | – | – | – | – | – | still inhibited processing
